Assay results as given in US7045152B2, “Treating pulmonary disorders with gaseous agent causing repletion of GSNO” (Duke University, priority 1999, dated 2006).

Experiments:
Type in all cases: in vivo, human
ARDS = experiment: Inhaled gas treatment of patients with ARDS (Examples II, VI, VII, VIII)
cystic fibrosis = experiment: Inhaled gas / nebulized treatment of patients with cystic fibrosis (Examples IV, IX, XI, XII)
asthma = experiment: Inhaled gas treatment of patients with asthma (Examples III, X); details: Example III; child, status asthmaticus, intubated; 20 ppm in nitrogen

`CC(=O)N[C@@H](CS)C(=O)O` [N-acetylcysteine, reference compound] gave a PaO2 (ARDS; Example VII, nebulized N-acetylcysteine added to ENO (arrow B), from 37) of 46 mm Hg.

With `CCON=O` [Ethylnitrite] the PaO2 (ARDS; Example VII, ENO in nitrogen started again (arrow D), from 43) was 49 mm Hg, the PaO2 (ARDS; Example VII, ENO stopped (arrow C), from 46) was 43 mm Hg and the blood pressure (ARDS; Example VII, hemodynamically unstable patient, ENO 40 ppm in nitrogen) was “stabilized”. For the same molecule, the PaO2 (ARDS; Example VII, over the following 12 hours on ENO, progressively less responsive) was 37 millimeters of mercury, the PaO2 (ARDS; Example VII, person, viral pneumonia progressed to ARDS, initial ENO 40 ppm in nitrogen (arrow A), from 39 on 100% oxygen) was 48 mm Hg and the PaO2 (ARDS; Example VIII, person, ARDS, inhaled 10 ppm in nitrogen for three days, from 50) was 40 mm Hg. For the same molecule, the “GSNO levels in the airway lining fluid” value (cystic fibrosis; human, in vivo) was “increase”, the blood gases (cystic fibrosis; human, in vivo) was “improved” and the pulmonary hemorrhage (cystic fibrosis; human, in vivo) was “the hemorrhage stops”. For the same molecule, the state of health (cystic fibrosis; human, in vivo) was “reverts to their normal state of health”.

Work on `CSN=O` [Methylthionitrite] yielded a PaO2 (ARDS; Example VI, person, AML, ARDS, intubated, 20 parts per million oxygen, from PO2 40 on 100% oxygen) of 70 mm Hg.

For `[Na+].[Na+].[O-][N+]([O-])=NO` [Angeli's salt, reference compound], the sputum production (cystic fibrosis; Example XI, 100 mM in 3 cc normal saline nebulized Q 6 hours, over two days, after HNO) was “decreases in sputum production”.

With `COS(=O)N=O` (centres unmarked) [methylnitrososulfinate] the airway pressures (asthma) was “airway pressures decrease”.
